Measurements reported in patent US9517221B2, “(2R)-2-propyloctanoic acid for functional brain disease” (ONO PHARMACEUTICAL CO., LTD., priority 2006, dated 2016).

Tests used:
Assay type in all cases: in vivo, rat
[1] = test system: olfactory bulbectomized rats; experiment: Influence on hyperemotional score in olfactory bulbectomized rats (Test Example 4-2); conditions: oral once a day for 7 days; present tense
Source text: Wistar male rats are used in the test. By fixing the head of each rat under pentobarbital sodium anesthesia to a brain stereotaxic apparatus, the head skin is incised and then holes are opened at right and left olfactory bulb regions using a dental drill to suck and remove the right and left olfactory bulbs using an aspirator. The head skin is stitched thereafter. In this connection, the suction and removal of olfactory bulbs are not carried out in the sham-operation group, and the head skin is stitched after opening holes at right and left olfactory bulb regions. The rats after extraction of the olfactory bulbs are put into a series of five stainless steel cages, each of which is partitioned into two parts with an acrylic board for individual rearing space, and individually reared for 2 weeks under a dark condition, and then subjected to the following tests of <4-2> and <4-3>.
The vehicle and test drug are orally administered once a day repeatedly for 7 days. The evaluation is carried out under a quiet environment, before the grouping and on the 1st and 7th days after administration of the test drug. The degree of irritability is scored in accordance with the evaluation criteria shown below, before the grouping and before the administration of 7 days test drug administration, and after 1 hour of the administration of test drug administration of 1 day and 7 days. […]

[2] = test system: Wistar male rats; experiment: Confirmation test of anti-stress activity (Test Example 2); conditions: oral, 30 minutes before stress loading; counted 1 hour thereafter; present tense
[3] = test system: olfactory bulbectomized rats; experiment: Hyperemotional reactivity (hyperemotional score) of olfactory bulbectomized rats; design: key to Hyperemotional score (mean ± S. E.), One day administration, Before administration / Hyperemotional score (mean ± S. E.), One day administration, After administration / Hyperemotional score (mean ± S. E.), Seven days administration, Before administration / Hyperemotional score (mean ± S. E.), Seven days administration, After administration: irritability score per Gomita et al. (1983) criteria; conditions: for Hyperemotional score (mean ± S. E.), Seven days administration, After administration: 1 hour to 1 hour 10 minutes after 7 days administration; for Hyperemotional score (mean ± S. E.), Seven days administration, Before administration: before administration of the 7 days administration; for Hyperemotional score (mean ± S. E.), One day administration, After administration: 1 hour to 1 hour 10 minutes after 1 day administration; for Hyperemotional score (mean ± S. E.), One day administration, Before administration: baseline before grouping, 12 animals
Procedure: SPF rats (Crlj: WI) were used in the test. The animal for olfactory bulbectomy was anesthetized with pentobarbital sodium (Nembutal R Injection, Dainippon Pharmaceutical, dose: 1 mL/kg (intraperitoneal administration)), and the head was fixed using a brain stereotaxic apparatus (ASI Instruments, Inc., NARISHIGE). After incising the head skin, holes are opened at right and left olfactory bulb regions of the skull using a dental drill (manufactured by MINITOR), and the right and left olfactory bulbs were removed by sucking them using an aspirator connected to a tip-removed oral sonde, and the head skin was stitched thereafter. In this connection, in the case of the animals for sham-operation, anesthesia, brain fixation and head skin incision were carried out in the same manner as in the animals for olfactory bulbectomy, holes are opened at right and left olfactory bulb regions of the skull and the head skin was stitched without carrying out suction removal of the olfactory bulbs. The rats after olfactory bulbectomy were put into a series of five stainless steel cages, each of which was partitioned into two parts with an acrylic board for individual rearing space, and individually reared under a dark condition. The rats were subjected to the following tests of (2) and (3).
• (a) Sham-operation group (12 animals); • (b) Vehicle control group (12 animals); • (c) 3 mg/kg administration group (12 animals) of (2R)-2-propyloctanoic acid; • (d) 10 mg/kg administration group (12 animals) of (2R)-2-propyloctanoic acid; • (e) 10 mg/kg administration group (12 animals) of Milnacipran hydrochloride. [Drug Administration]
As shown below, drug solution or vehicle was administered once a day for 8 days, a total of 8 times, at a respective liquid dose of 5 mL/kg. • (a) Sham-operation group: vehicle (0.1% by volume Tween 80) aqueous solution; • (b) Vehicle control group: vehicle (0.1% by volume Tween 80) aqueous solution; • (c) 3 mg/kg administration group of (2R)-2-propyloctanoic acid: a drug solution in which (2R)-2-propyloctanoic acid was prepared to be 0.6 mg/mL with the vehicle; • (d) 10 mg/kg administration group of (2R)-2-propyloctanoic acid: a drug solution in which (2R)-2-propyloctanoic acid was prepared to be 2.0 mg/mL with the vehicle; • (e) 10 mg/kg administration group of milnacipran hydrochloride: a drug solution in which Milnacipran hydrochloride was prepared to be 2.3 mg/mL with the vehicle (Milnacipran itself is included in 2.0 mg/mL). (2) Examination of the Activity for Hyperemotional Reactivity <Evaluation Method>
Evaluation of the hyperemotional reactivity was carried out (1) before the grouping, (2) from 1 hour to 1 hour and 10 minutes after administration of the 1 day drug administration, (3) before administration of the 7 days administration and (4) from 1 hour to 1 hour and 10 minutes after the administration (a total of 4 times), by scoring the degree of irritability once a rat in accordance with the following evaluation criteria of hyperemotional reactivity (hyperemotional score: prepared based on the method of Gomita et al. (Folia Pharmacologica Japonica, 82, 267, 1983). Additionally, all of the conditions of the evaluation were shot and recorded using a video camera (SSC-DC430, SONY) and handled as reference data.

SMILES: CCCCCC[C@@H](CCC)C(=O)O [(2R)-2-propyloctanoic acid]
- Development of hyperemotionality versus vehicle group [1]: inhibits development of hyperemotionality
- Number of defecations versus vehicle treating group [2]: significantly suppress the number of defecations
- Development of hyperemotionality versus vehicle control group ([3]; 1st day and 7th day of the administration, result in words): inhibited development of hyperemotionality
- Hyperemotional score (mean ± S. E.), Seven days administration, After administration ([3]; dose 3 mg/kg once a day): 5.9 ± 1.5
- Hyperemotional score (mean ± S. E.), Seven days administration, Before administration ([3]; dose 3 mg/kg once a day): 6.3 ± 1.0
- Hyperemotional score (mean ± S. E.), One day administration, After administration ([3]; dose 3 mg/kg): 8.8 ± 1.4
- Hyperemotional score (mean ± S. E.), One day administration, Before administration ([3]; dose 3 mg/kg): 20.0 ± 0.0
- Hyperemotional score (mean ± S. E.), Seven days administration, After administration ([3]; dose 10 mg/kg once a day): 4.8 ± 0.8
- Hyperemotional score (mean ± S. E.), Seven days administration, Before administration ([3]; dose 10 mg/kg once a day): 6.7 ± 1.4
- Hyperemotional score (mean ± S. E.), One day administration, After administration ([3]; dose 10 mg/kg): 7.4 ± 0.9
- Hyperemotional score (mean ± S. E.), One day administration, Before administration ([3]; dose 10 mg/kg): 20.0 ± 0.0
